From article PMC11249239 (PLOS ONE, 2024)
Where two headings read alike, the source gives them in different places.

How the values were obtained:
HDAC3 = target: T1, HDAC3 (Homo sapiens, UniProt O15379); experiment: In vitro HDAC isoform inhibition, purified recombinant HDAC3; format: biochemical; settings: purified recombinant protein; ± margin of error of 95% confidence interval; read-out: IC50 HDAC inhibition activity in vitro, HDAC 3
T1 construct: purchased PBS Bioscience [sic] (San Diego, CA); host or cells: Sf9 insect cells / baculovirus
Excerpt: In vitro HDAC enzyme inhibition assays utilized HeLa cell extract for pan-HDACs with the substrate Fluor-Lys following the manufacturer’s protocol (BIOMOL/ENZO, Plymouth Meeting, PA). For isoform assays, purified HDAC1, HDAC3, and HDAC6 recombinant proteins produced by expressing epitope-tagged full-length proteins in the sf9 baculovirus expression vector system were purchased from PBS Bioscience (San Diego, CA). […] The reaction commenced with the addition of HDAC substrate at room temperature and proceeded for 30 minutes. Termination of the reaction was achieved by adding 50 μL of Fluor de Lys (TM) Assay Developer. The fluorophore was excited at 360 nm and emitted light at 460 nm. Relative fluorescence was measured using a FlexStation II plate reader (Molecular Devices, Sunnyvale, CA).

HDAC4 = HDAC4 (Homo sapiens, UniProt P56524); experiment: HDAC4 activity inhibition (data not shown); format: biochemical; settings: read-out: IC50 class IIa HDAC4 inhibition
HDAC5 = HDAC5 (Homo sapiens, UniProt Q9UQL6); experiment: HDAC5 activity inhibition (data not shown); format: biochemical; settings: read-out: IC50 class IIa HDAC5 inhibition
T47D (ER+) cells = experiment: Cell growth inhibition (CCK8 cytotoxicity assay), T47D; format: cell-based; settings: 48 h treatment, read-out: Average EC50 ± SD, cell growth inhibition
MCF7 cells = experiment: Radiation clonogenic survival assay, MCF7; format: cell-based; settings: 0.3 μM for 24 h then graded γ-radiation, DMSO control 1.5 Gy
Method: Logarithmically growing cells were treated with vehicle (0.1% Dimethyl Sulfoxide) or SP-1-303 (0.3 μM) for 24 h followed by sham or γ-radiation using a Mark-30 irradiator with a 137Cs source at a fixed dose rate of 2.71 Gy/min. Cells were exposed to graded doses at room temperature. After 10–14 days, cells were fixed and stained with crystal violet, and colonies were counted. The surviving fractions of treated cells were normalized using the plating efficiencies of untreated controls. Radiation survival curves were generated by fitting to the single-hit, multitarget model.

p-ATM/S1981 = experiment: Western blot, phosphorylation of ATM; format: cell-based; settings: MCF7 and MDA-MB-231; 1 μM; within 0.5 h
Excerpt: (§1) Following treatment of cells with SP-1-303 over a time course, total or nuclear proteins were extracted and analyzed on 4–20% trisglycine gradient sodium dodecyl sulfate polyacrylamide gel electrophoresis (SDS-PAGE). Subsequently, membranes were probed with antibodies targeting specific proteins in accordance with the manufacturers’ protocols, including ATM (ab78), p-BRCA1 (ab90528), BRCA1 (ab191042), p-p53/S15 (ab1431), acetylated H3K9 (ab12179) from Abcam, as well as p-ATM (# 5883) and p53 (#9282) from Cell Signaling, α-tubulin (T6793) and β-actin (A3854) from Sigma-Aldrich, ER-α (cat# MA1-80216, Invitrogen) and HDAC2 (BML-SA402. Enzo). Protein images were captured using ECL Prime Western Blotting Detection Reagents (Cat#. RPN2232, Amersham) and the Amersham Imager 600. For immunofluorescent analysis, formalin fixed cells were permeabilized with 0.1% Triton X-100 in TBS for 10 minutes at room temperature, followed by blocking with 1% Blocker BSA for 15 minutes at room temperature. Cells were then probed with a phospho-ATM monoclonal antibody (MA5-15185) and DyLight 488 goat anti-mouse IgG secondary antibody at room temperature. Actin was stained with DyLight 554 phalloidin, while nuclei were stained with 4’,6-diamidino-2-phenylindole dye (DAPI). Images were captured using a Nikon Epi Fluorescent microscopy.

ER-α = experiment: Western blot of nuclear extracts, ER-α expression; format: cell-based; settings: MCF7; 1 μM; from 2h to 6h
Excerpt: as §1

phosphorylated p53 = experiment: Western blot, phosphorylated p53; format: cell-based; settings: 1 μM
Excerpt: as §1

Sequence of HDAC5 (Q9UQL6 whole entry, species assumed): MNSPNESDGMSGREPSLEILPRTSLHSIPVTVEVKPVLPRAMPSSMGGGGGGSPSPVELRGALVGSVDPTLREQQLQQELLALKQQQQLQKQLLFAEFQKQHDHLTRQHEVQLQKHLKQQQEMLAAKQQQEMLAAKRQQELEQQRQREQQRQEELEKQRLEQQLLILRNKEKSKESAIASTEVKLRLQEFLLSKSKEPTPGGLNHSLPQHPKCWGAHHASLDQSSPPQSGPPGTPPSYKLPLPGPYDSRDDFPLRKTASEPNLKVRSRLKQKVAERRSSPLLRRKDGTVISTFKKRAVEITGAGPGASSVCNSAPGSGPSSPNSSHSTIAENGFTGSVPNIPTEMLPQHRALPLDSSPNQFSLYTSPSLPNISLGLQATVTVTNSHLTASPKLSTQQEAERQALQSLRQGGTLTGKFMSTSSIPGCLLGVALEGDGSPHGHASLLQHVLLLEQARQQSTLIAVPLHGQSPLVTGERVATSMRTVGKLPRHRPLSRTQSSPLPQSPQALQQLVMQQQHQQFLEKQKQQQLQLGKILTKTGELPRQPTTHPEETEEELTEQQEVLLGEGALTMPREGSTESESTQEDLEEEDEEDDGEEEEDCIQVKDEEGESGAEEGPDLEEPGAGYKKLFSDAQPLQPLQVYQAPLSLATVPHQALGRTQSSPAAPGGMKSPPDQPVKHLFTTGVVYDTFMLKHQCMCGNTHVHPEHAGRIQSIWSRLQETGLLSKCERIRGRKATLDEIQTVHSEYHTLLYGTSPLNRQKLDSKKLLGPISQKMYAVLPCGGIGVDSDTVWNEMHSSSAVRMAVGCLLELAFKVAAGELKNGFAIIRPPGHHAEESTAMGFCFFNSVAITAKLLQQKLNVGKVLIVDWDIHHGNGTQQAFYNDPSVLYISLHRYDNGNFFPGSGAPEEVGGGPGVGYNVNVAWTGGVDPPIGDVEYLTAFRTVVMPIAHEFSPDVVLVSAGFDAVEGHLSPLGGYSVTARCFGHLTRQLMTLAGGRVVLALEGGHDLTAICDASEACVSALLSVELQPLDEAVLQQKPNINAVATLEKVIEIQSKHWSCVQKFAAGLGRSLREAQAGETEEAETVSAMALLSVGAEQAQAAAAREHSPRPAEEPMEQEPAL
T1 sequence (O15379 whole entry, canonical isoform): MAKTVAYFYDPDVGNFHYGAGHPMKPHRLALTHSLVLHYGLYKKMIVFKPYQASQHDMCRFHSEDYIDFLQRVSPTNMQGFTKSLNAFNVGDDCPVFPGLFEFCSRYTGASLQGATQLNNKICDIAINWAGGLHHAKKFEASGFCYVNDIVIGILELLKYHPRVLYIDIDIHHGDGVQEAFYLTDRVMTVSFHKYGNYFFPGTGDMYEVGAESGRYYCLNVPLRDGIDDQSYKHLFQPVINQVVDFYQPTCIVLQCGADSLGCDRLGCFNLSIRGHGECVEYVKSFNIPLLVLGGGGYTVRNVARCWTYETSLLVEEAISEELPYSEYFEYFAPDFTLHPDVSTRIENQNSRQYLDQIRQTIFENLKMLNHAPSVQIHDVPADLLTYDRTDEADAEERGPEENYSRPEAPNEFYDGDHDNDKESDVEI
T1 sequence (Q9Y618 395-489 partner limits assumed): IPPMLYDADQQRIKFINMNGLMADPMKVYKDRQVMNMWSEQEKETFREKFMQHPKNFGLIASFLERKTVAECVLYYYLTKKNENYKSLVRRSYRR
Sequence of HDAC4 (P56524 whole entry, species assumed): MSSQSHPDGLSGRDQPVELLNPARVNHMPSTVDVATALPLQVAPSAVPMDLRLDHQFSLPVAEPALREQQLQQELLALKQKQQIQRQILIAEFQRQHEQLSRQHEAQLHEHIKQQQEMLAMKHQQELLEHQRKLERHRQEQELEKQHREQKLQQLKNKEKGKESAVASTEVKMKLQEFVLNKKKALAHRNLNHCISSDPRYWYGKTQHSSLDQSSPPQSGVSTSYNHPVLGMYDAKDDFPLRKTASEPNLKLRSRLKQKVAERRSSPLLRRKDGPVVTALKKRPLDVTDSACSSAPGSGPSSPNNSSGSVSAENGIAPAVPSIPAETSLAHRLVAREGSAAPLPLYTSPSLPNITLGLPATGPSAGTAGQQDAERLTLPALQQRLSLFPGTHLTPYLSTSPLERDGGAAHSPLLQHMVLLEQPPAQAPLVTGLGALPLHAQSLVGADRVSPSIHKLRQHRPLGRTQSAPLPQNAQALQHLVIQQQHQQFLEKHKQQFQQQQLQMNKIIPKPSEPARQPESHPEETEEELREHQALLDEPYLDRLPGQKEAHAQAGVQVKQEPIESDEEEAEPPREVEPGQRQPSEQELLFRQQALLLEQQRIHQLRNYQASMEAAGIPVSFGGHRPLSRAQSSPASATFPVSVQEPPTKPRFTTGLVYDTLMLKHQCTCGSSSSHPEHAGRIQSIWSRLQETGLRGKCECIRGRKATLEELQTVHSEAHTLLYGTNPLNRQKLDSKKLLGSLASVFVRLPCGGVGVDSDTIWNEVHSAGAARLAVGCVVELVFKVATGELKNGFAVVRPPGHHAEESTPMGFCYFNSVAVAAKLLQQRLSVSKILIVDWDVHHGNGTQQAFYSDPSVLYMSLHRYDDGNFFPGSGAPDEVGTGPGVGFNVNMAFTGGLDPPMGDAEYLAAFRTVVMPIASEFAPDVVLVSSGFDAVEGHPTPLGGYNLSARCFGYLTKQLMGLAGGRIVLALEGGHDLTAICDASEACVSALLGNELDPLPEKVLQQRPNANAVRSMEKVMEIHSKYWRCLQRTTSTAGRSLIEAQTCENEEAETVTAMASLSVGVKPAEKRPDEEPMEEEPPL

SMILES: Cc1[nH]c2ccccc2c1C1=C(c2c(C)[nH]c3ccccc23)C(=O)N(CCCCCCC(=O)NO)C1=O [SP-1-303]
- IC50 (HDAC3): 14 ± 2 nM
- IC50 (HDAC4): > 20000 nM
- IC50 (HDAC5): > 20000 nM
- EC50 (T47D (ER+) cells): 321 ± 27 nM
- EC50 (T47D (ER+) cells; Homo sapiens, T47D, 48 h): 320 nM
- D0, radiation clonogenic survival (MCF7 cells): 1.3 Gy
- phosphorylation of ATM/S1981 (p-ATM/S1981): significantly enhanced
- ER-α expression (ER-α): gradual reduction
- phosphorylated p53 (phosphorylated p53; MCF7, within 1h to 2h): induction
- phosphorylated p53 (phosphorylated p53; MDA-MB-231): no phosphorylated p53
